Values quoted from earlier work as cited in patent US6071508A, “Preparation of formulations for electrotransport drug delivery” (Alza Corporation, priority 1997, dated 2000).
Where a name gives a salt, the structure may show the parent alone.

Conditions: known value

c1ccc2c(c1)CC[C@H](CNCCCNC1=NCCCN1)O2 [drug salt of Example 1, (-)-(R)-N-[(3,4-dihydro-2H-1-benzopyran-2-yl)methyl]-N'-(1,4,5,6-tetrahydropyrimidinyl)-1,3-propanediamine dihydrochloride]
pKa, pyrimidinamine functionality: > 11.0
pKa, secondary amine group: 8.3
